Laboratory results taken from patent publication US10519109B2, “Glycopyrronium fatty acid salts and methods of making same” (QAAM PHARMACEUTICALS, LLC, priority 2015, dated 2019).
“And” between values parts separate entries of the source, which are not always exact repeats. Equal values may be shown once. Read-outs that look alike come from different tables or passages of the source.

How the values were obtained:
[1] = potassium laurate solubility in various solvents (solvent added dropwise under sonication); type: physicochemical; settings: thermodynamic from solid
Experimental: In order to select the reaction solvents and their optimized volumes, the solubility of potassium laurate in various solvents was checked by adding solvent to dissolve the solids under sonication. A vial was charged with potassium laurate (˜100 mg) and then solvent was added dropwise under sonication. The potassium laurate could not be dissolved with most solvents (200 vol.).

[2] = ~4 months at ambient conditions

In the case of `CCCCCCCCCCCC(=O)[O-].[K+]` [potassium laurate], the solubility ([1]; organic solvent or mixture, Acetone, 50° C.) is reported as < 5000 µg/mL, the solubility ([1]; organic solvent or mixture, Acetone, room temperature, read-out: potassium laurate solubility At Room Temperature) is reported as < 5000 µg/mL and the solubility ([1]; organic solvent or mixture, Butyl Acetate, 50° C.) is reported as < 5000 µg/mL. The solubility ([1]; organic solvent or mixture, Butyl Acetate, room temperature, read-out: potassium laurate solubility At Room Temperature) was < 5000 µg/mL, the solubility ([1]; organic solvent or mixture, Ethanol, room temperature, read-out: potassium laurate solubility At Room Temperature) was ~14000 µg/mL and the solubility ([1]; organic solvent or mixture, Ethyl Acetate, 50° C.) was < 5000 µg/mL. The solubility ([1]; organic solvent or mixture, Ethyl Acetate, room temperature, read-out: potassium laurate solubility At Room Temperature) was < 5000 µg/mL, the solubility ([1]; organic solvent or mixture, IPA, 50° C.) was < 5000 µg/mL and the solubility ([1]; organic solvent or mixture, IPA, room temperature, read-out: potassium laurate solubility At Room Temperature) was < 5000 µg/mL. For the same compound, the solubility ([1]; organic solvent or mixture, Isopropyl Acetate, 50° C.) was < 5000 µg/mL, the solubility ([1]; organic solvent or mixture, Isopropyl Acetate, room temperature, read-out: potassium laurate solubility At Room Temperature) was < 5000 µg/mL and the solubility ([1]; organic solvent or mixture, MEK, 50° C.) was < 5000 µg/mL. The solubility ([1]; organic solvent or mixture, MEK, room temperature, read-out: potassium laurate solubility At Room Temperature) was < 5000 µg/mL, the solubility ([1]; organic solvent or mixture, MIBK, 50° C.) was < 5000 µg/mL and the solubility ([1]; organic solvent or mixture, MIBK, room temperature, read-out: potassium laurate solubility At Room Temperature) was < 5000 µg/mL. For the same compound, the solubility ([1]; organic solvent or mixture, Methanol, room temperature, read-out: potassium laurate solubility At Room Temperature) was ~50000 µg/mL, the solubility ([1]; organic solvent or mixture, Methyl Acetate, 50° C.) was < 5000 µg/mL and the solubility ([1]; organic solvent or mixture, Methyl Acetate, room temperature, read-out: potassium laurate solubility At Room Temperature) was < 5000 µg/mL. For the same compound, the solubility ([1]; Water, room temperature, read-out: potassium laurate solubility At Room Temperature) was ~138000 µg/mL.

For `C[N+]1(C)CCC(OC(=O)C(O)(c2ccccc2)C2CCCC2)C1` (centres unmarked) [glycopyrronium laurate], the “HPLC Results Glycopyrronium” value (Expt. 1A: Me-THF Solution at RT over weekend) was 87.72 AUC % and 87.72% AUC %, the “HPLC Results Glycopyrronium” value (Expt. 1B: Me-THF Solution at 50° C. over weekend, Bottom layer) was 49.47% AUC % and the “HPLC Results Glycopyrronium” value (Expt. 1B: Me-THF Solution at 50° C. over weekend, Top layer) was 57 AUC % and 57.13% AUC %. The “HPLC Results Glycopyrronium” value (Expt. 2A: Me-THF Solution in the presence of Lauric Acid at RT over weekend) was 89.44% AUC %, the “HPLC Results Glycopyrronium” value (Expt. 2B: Me-THF Solution in the presence of Lauric Acid at 50° C. over weekend, Bottom layer) was 65.60% AUC % and the “HPLC Results Glycopyrronium” value (Expt. 2B: Me-THF Solution in the presence of Lauric Acid at 50° C. over weekend, Top layer) was 69.58% AUC %.

With `C[N+]1(C)CCC(OC(=O)C(O)(c2ccccc2)C2CCCC2)C1` (centres unmarked) [glycopyrronium stearate] the degradation over time [2] was “degradation was observed”.
